Results as given in ChEMBL document CHEMBL4033675, “Identification of novel 1,2,3,6-tetrahydropyridyl-substituted benzo[d]thiazoles: Lead generation and optimization toward potent and orally active EP1 receptor antagonists” (Bioorg Med Chem, 2017).
Active and inactive are the calls of the source. No cut-off for these calls is given here.

Tested on: Rattus norvegicus
Assay: Inhibition of 17-PTP-induced increase in intravesical pressure in intraduodenally dosed rat overactive bladder model pretreated for 5 mins followed by 17-PTP treatment with 30 mins time interval for 245 mins
Assay type: functional, organism-based
Settings: not given

Row | Structure (SMILES) | inhibition
1 | Cc1cc(C(=O)O)nn1Cc1cc(Cl)cc2sc(-c3ccccc3)nc12 | inactive
2 | Cc1cc(C(=O)O)nn1Cc1cc(Cl)cc2sc(N3CC=CCC3)nc12 | Dose-dependent effect

Tested on: not listed separately
Assay: Half life in rat at 1 mg/kg, iv
Assay type: ADME, organism-based
Settings: in vivo

Row | Structure (SMILES) | half-life [min]
3 | Cc1cc(C(=O)O)nn1Cc1cc(Cl)cc2sc(N3CC=CCC3)nc12 | 40.7

Tested on: not listed separately
Assay: Volume of distribution in rat at 1 mg/kg, iv
Assay type: ADME, organism-based
Settings: in vivo

Row | Structure (SMILES) | Vd [L/kg]
4 | Cc1cc(C(=O)O)nn1Cc1cc(Cl)cc2sc(N3CC=CCC3)nc12 | 0.184

Tested on: not listed separately
Assay: Initial concentration in rat at 1 mg/kg, iv
Assay type: ADME, organism-based
Settings: in vivo

Row | Structure (SMILES) | C0 [ng/mL]
5 | Cc1cc(C(=O)O)nn1Cc1cc(Cl)cc2sc(N3CC=CCC3)nc12 | 6000

Tested on: not listed separately
Assay: AUC (0 to infinity) in rat at 1 mg/kg, iv
Assay type: ADME, organism-based
Parameters: dose 1 mg/kg, time infinity, route intravenous
Settings: in vivo

Row | Structure (SMILES) | AUC(0-inf) [ng·h/mL]
6 | Cc1cc(C(=O)O)nn1Cc1cc(Cl)cc2sc(N3CC=CCC3)nc12 | 4480

Tested on: not listed separately
Assay: Chemical stability of the compound in pH 1 acidic aqueous medium
Assay type: physicochemical
Settings: buffer

Row | Structure (SMILES) | Stability
7 | Cc1cc(C(=O)O)nn1Cc1cc(Cl)cc2sc(N3CC=CCC3)nc12 | Stable

Tested on: not listed separately
Assay: Total clearance in rat at 1 mg/kg, iv
Assay type: ADME, organism-based
Settings: in vivo

Row | Structure (SMILES) | clearance [mL/min/kg]
8 | Cc1cc(C(=O)O)nn1Cc1cc(Cl)cc2sc(N3CC=CCC3)nc12 | 3.79

Target: T1, Prostaglandin E2 receptor EP1 subtype (Rattus norvegicus, UniProt P70597)
T1 sequence (P70597 whole entry): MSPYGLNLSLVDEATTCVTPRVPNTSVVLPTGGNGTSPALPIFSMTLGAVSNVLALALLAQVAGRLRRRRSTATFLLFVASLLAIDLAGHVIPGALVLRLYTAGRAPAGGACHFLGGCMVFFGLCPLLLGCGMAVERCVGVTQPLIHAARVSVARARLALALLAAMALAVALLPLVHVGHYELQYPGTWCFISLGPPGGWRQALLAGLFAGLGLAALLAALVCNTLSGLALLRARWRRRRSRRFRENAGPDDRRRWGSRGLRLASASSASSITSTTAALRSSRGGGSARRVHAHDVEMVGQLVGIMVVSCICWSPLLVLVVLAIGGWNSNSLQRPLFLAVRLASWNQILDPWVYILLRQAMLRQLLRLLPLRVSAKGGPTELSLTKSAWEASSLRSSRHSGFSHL
Assay: Antagonist activity at rat EP1 receptor expressed in African green monkey COS1 cells assessed as inhibition of prostaglandin-E2-induced increase in intracellular calcium level preincubated for 60 secs followed by prostaglandin-E2 addition measured for 60 secs by Fluo 4-AM dye based fluorescence assay
Assay type: functional, cell-based
Settings: not given

Row | Structure (SMILES) | IC50 [nM]
9 | Cc1cc(C(=O)O)nn1Cc1cc(Cl)cc2nc(-c3ccccc3)sc12 | 7950
10 | O=C(O)c1ccc(Oc2cc(Cl)cc3sc(N4CC=CCC4)nc23)o1 | 150
11 | Cc1cc(C(=O)O)nn1Cc1cc(Cl)cc2sc(N3CCC3)nc12 | 320
12 | CC(=O)c1cc(Cn2nc(C(=O)O)cc2C)c2nc(N3CC=CCC3)sc2c1 | 200
13 | CC1=CCCN(c2nc3c(Cn4nc(C(=O)O)cc4C)cc(Cl)cc3s2)C1 | 30
14 | Cc1cc(C(=O)O)nn1Cc1cc(Cl)cc2sc(N3CCN(C)CC3)nc12 | 4900
15 | CNc1cc(Cn2nc(C(=O)O)cc2C)c2nc(N3CC=CCC3)sc2c1 | 8800
16 | Cc1cc(C(=O)O)nn1Cc1cc(Cl)cc2sc(C3=CCCCC3)nc12 | 110
17 | Cc1cc(C(=O)O)nn1Cc1cc(Cl)cc2sc(N3CC=CC3)nc12 | 110
18 | Cc1cc(C(=O)O)nn1Cc1cc(Cl)cc2sc(-c3ccccc3)nc12 | 31
19 | Cc1cc(C(=O)O)nn1Cc1cc(Cl)cc2sc(N3CCCCC3)nc12 | 43
20 | Cc1cc(C(=O)O)nn1Cc1cc(Cl)cc2nc(-c3ccccc3)oc12 | 750
21 | Cc1cc(C(=O)O)nn1Cc1cc(Br)cc2sc(N3CC=CCC3)nc12 | 22
22 | C=C(C)c1cc(Cn2nc(C(=O)O)cc2C)c2nc(N3CC=CCC3)sc2c1 | 160
23 | Cc1cc(Cn2nc(C(=O)O)cc2C)c2nc(N3CC=CCC3)sc2c1 | 2500
24 | Cc1cc(C(=O)O)nn1Cc1cc(Cl)cc2sc(N3CCS(=O)(=O)CC3)nc12 | 4200
25 | Cc1cc(C(=O)O)nn1Cc1cc(Cl)cc2sc(C3CCCCC3)nc12 | 430
26 | Cc1cc(C(=O)O)nn1Cc1cc(N(C)C)cc2sc(N3CC=CCC3)nc12 | 210
27 | Cc1cc(C(=O)O)nn1Cc1cc(Cl)cc2sc(N3CCOCC3)nc12 | 63
28 | CCCN(CC)c1nc2c(Cn3nc(C(=O)O)cc3C)cc(Cl)cc2s1 | 270
29 | C=Cc1cc(Cn2nc(C(=O)O)cc2C)c2nc(N3CC=CCC3)sc2c1 | 9.9
30 | COc1cc(Cn2nc(C(=O)O)cc2C)c2nc(N3CC=CCC3)sc2c1 | 37

Row | Structure (SMILES) | IC50 [nM]
31 | Cc1cc(C(=O)O)nn1Cc1cc(C#N)cc2sc(N3CC=CCC3)nc12 | 230
32 | O=C(O)c1ccc(Sc2cc(Cl)cc3sc(N4CC=CCC4)nc23)o1 | 6.4
33 | CCN(C)c1nc2c(Cn3nc(C(=O)O)cc3C)cc(Cl)cc2s1 | 13
34 | C=C(C)c1nc2c(Cn3nc(C(=O)O)cc3C)cc(Cl)cc2s1 | 33
35 | CNc1nc2c(Cn3nc(C(=O)O)cc3C)cc(Cl)cc2s1 | 470
36 | CC1=CCN(c2nc3c(Cn4nc(C(=O)O)cc4C)cc(Cl)cc3s2)CC1 | 64
37 | Cc1cc(C(=O)O)nn1Cc1cc(F)cc2sc(N3CC=CCC3)nc12 | 17
38 | Cc1cc(C(=O)O)nn1Cc1cc(Cl)cc2sc(N3CCCCCC3)nc12 | 270
39 | CC1=C(C)CN(c2nc3c(Cn4nc(C(=O)O)cc4C)cc(Cl)cc3s2)CC1 | 5200
40 | O=C(O)c1ccn(Cc2cc(Cl)cc3sc(N4CC=CCC4)nc23)c1 | 240
41 | Cc1cc(C(=O)O)nn1Cc1cc(Cl)cc2sc(N3CCCC3)nc12 | 30
42 | Cc1cc(C(=O)O)nn1Cc1cc(OC(F)(F)F)cc2sc(N3CC=CCC3)nc12 | 97
43 | O=C(O)c1ccn(Cc2cc(Cl)cc3sc(N4CC=CCC4)nc23)n1 | 51
44 | Cc1cc(C(=O)O)nn1Cc1cc(Cl)cc2oc(-c3ccccc3)nc12 | 8700
45 | Cc1cc(C(=O)O)nn1Cc1cccc2sc(N3CC=CCC3)nc12 | 32
46 | CCN(CC)c1nc2c(Cn3nc(C(=O)O)cc3C)cc(Cl)cc2s1 | 6.2
47 | Cc1cc(C(=O)O)nn1Cc1cc(Cl)cc2sc(N(C)C)nc12 | 100
48 | Cc1cc(C(=O)O)nn1Cc1cc(C(=O)O)cc2sc(N3CC=CCC3)nc12 | 7900
49 | O=C(O)c1ccc(Cc2cc(Cl)cc3sc(N4CC=CCC4)nc23)o1 | 60
50 | Cc1cc(C(=O)O)nn1Cc1cc(N)cc2sc(N3CC=CCC3)nc12 | 7800
51 | Cc1cc(C(=O)O)nn1Cc1cc(Cl)cc2sc(N3CCSCC3)nc12 | 66
52 | Cc1cc(C(=O)O)nn1Cc1cc(Cl)cc2sc(N3CC=CCC3)nc12 | 1.1
